From Sander's compilation of Henry's law constants (doi:10.1021/ac00062a008)

Assay: Henry solubility constant Hcp at 298.15 K (mol/(m3 Pa))
Conditions: reference: Zhang and Pawliszyn (1993)

| Compound | Henry solubility constant Hcp |
| --- | --- |
| Cc1ccccc1C [1,2-dimethylbenzene] | 0.0027 |
| Cc1ccc(C)cc1 [1,4-dimethylbenzene] | 0.0017 |
| c1cc2c3c(cccc3c1)CC2 [acenaphthene] | 0.11 |
| Cc1ccccc1 [methylbenzene] | 0.0015 |

Results, then the compound that gave them:

| Henry solubility constant Hcp | Compound |
| --- | --- |
| 0.11 | c1ccc2cc3ccccc3cc2c1 [anthracene] |
| 0.0015 | c1ccccc1 [benzene] |
| 9.4 | c1ccc2c(c1)ccc1c3ccccc3ccc21 [chrysene] |
| 0.0025 | CCc1ccccc1 [ethylbenzene] |
| 0.021 | c1ccc2ccccc2c1 [naphthalene] |
| 0.25 | c1ccc2c(c1)ccc1ccccc12 [phenanthrene] |
